Earlier results, collected in PubChem BioAssay AID1259409 (Chemical Carcinogenesis Research Information System (CCRIS), 2018).

System: rodent chemically induced tumor inhibition, incidence and multiplicity
Test: CCRIS tumor inhibitor studies
Conditions: Promoter: NONE USED

For `NC(N)=NCCC[C@H](N)C(=O)O`, the “tumour outcome (control, treated, inhibition, significance)” value (Carcinogen: 7,12-DIMETHYLBENZ[A]ANTHRACENE, 57-97-6, Dose [Inhibitor]: 0, 5% IN A 14% CASEIN DIET BEGINNING 2 WK PRIOR TO CARCINOGEN DOSE AND CONTINUING FOR 21 WK (STUDY DURATION: 23 WK), Route [Inhibitor]: ORAL, Species: RAT, Strain/Sex: SPRAGUE-DAWLEY/FEMALE, Target Tissue: Type of Lesion: MAMMARY GLAND: TUMOR, Dose [Carcinogen]: 7.5 MG IN 0.75 ML SESAME OIL ONCE AT 50 D OF AGE) is listed as 24/30 (80%), 22/30 (73%), 8%, not significant, the “tumour outcome (control, treated, inhibition, significance)” value (Carcinogen: 7,12-DIMETHYLBENZ[A]ANTHRACENE, 57-97-6, Dose [Inhibitor]: 5% L-ARGININE IN DIET STARTING 7 D BEFORE DMBA ADMINISTRATION (STUDY DURATION: 21 WK), Route [Inhibitor]: ORAL, Species: RAT, Strain/Sex: SPRAGUE DAWLEY/FEMALE, Target Tissue: Type of Lesion: MAMMARY GLAND: TUMOR, Dose [Carcinogen]: 15% OIL EMULSION, 25 MG/KG BW ADMINISTERED ONCE) is listed as 95%, 25%, 74%, not calculated and the “tumour outcome (control, treated, inhibition, significance)” value (Carcinogen: 7,12-DIMETHYLBENZ[A]ANTHRACENE, 57-97-6, Dose [Inhibitor]: 5% L-ARGININE IN DIET STARTING 7 D BEFORE DMBA TREATMENT FOR 3 M AND THEN CONTROL DIET (STUDY DURATION: 32 WK), Route [Inhibitor]: ORAL, Species: RAT, Strain/Sex: SPRAGUE DAWLEY/FEMALE, Target Tissue: Type of Lesion: MAMMARY GLAND: TUMOR, Dose [Carcinogen]: 15% OIL EMULSION, 25 MG/KG BW ADMINISTERED ONCE) is listed as 100%, 80%, 20%, not calculated. For the same molecule, the “tumour outcome (control, treated, inhibition, significance)” value (Carcinogen: HYDRAZINE SULFATE, 10034-93-2, Dose [Inhibitor]: 1.1 MG/D IN DIET STARTING 1 WK PRIOR TO ADMINISTRATION OF CARCINOGEN UNTIL END OF EXPERIMENT (STUDY DURATION: APPROXIMAT, Route [Inhibitor]: ORAL, Species: MOUSE, Strain/Sex: SWISS/MALE, FEMALE, Target Tissue: Type of Lesion: LIVER AND LUNG: COMBINED TUMORS, Dose [Carcinogen]: 1.1 MG/D 5 D/WK UNTIL 12 MO OF AGE) was 24/29 (83%), 11/18 (61%), 26%, not significant, the “tumour outcome (control, treated, inhibition, significance)” value (Carcinogen: ISONIAZID, 54-85-3, Dose [Inhibitor]: 1.1 MG/MOUSE/D SIMULTANEOUS WITH CARCINOGEN 6 D/WK (STUDY DURATION: 24 MO), Route [Inhibitor]: INTRAGASTRIC, Species: MOUSE, Strain/Sex: SWISS/MALE, Target Tissue: Type of Lesion: LUNG: TUMOR, Dose [Carcinogen]: 1.1 MG/MOUSE/D SIMULTANEOUS WITH INHIBITOR) was 15/29 (52%), 3/10 (30%), 42%, not significant and the “tumour outcome (control, treated, inhibition, significance)” value (Carcinogen: N-METHYL-N-NITROSOUREA, 684-93-5, Dose [Inhibitor]: 0, 5% IN A 14% CASEIN DIET BEGINNING 2 WK PRIOR TO CARCINOGEN DOSE AND CONTINUING FOR 21 WK (STUDY DURATION: 23 WK), Route [Inhibitor]: ORAL, Species: RAT, Strain/Sex: SPRAGUE-DAWLEY/FEMALE, Target Tissue: Type of Lesion: MAMMARY GLAND: TUMOR, Dose [Carcinogen]: 4 MG/100 G BW ONCE AT 50 D OF AGE) was 28/30 (93%), 27/30 (90%), 3%, not significant.

For `S=C=NC(Cc1ccccc1)c1ccccc1` (stereo not drawn), the “tumour outcome (control, treated, inhibition, significance)” value (Carcinogen: 4-(METHYLNITROSAMINO)-1-(3-PYRIDYL)-1-BUTANONE, 64091-91-4, Dose [Inhibitor]: 0, 1 UMOL ONCE 2 HR PRIOR TO CARCINOGEN DOSE (STUDY DURATION: 16 WK), Route [Inhibitor]: GAVAGE, Species: MOUSE, Strain/Sex: STRAIN-A/FEMALE, Target Tissue: Type of Lesion: LUNG: ADENOMA, Dose [Carcinogen]: 10 UMOL IN 0.1 ML SALINE ONCE) is listed as 100%, 60%, 40%, p<0.05 and the “tumour outcome (control, treated, inhibition, significance)” value (Carcinogen: 4-(METHYLNITROSAMINO)-1-(3-PYRIDYL)-1-BUTANONE, 64091-91-4, Dose [Inhibitor]: 0, 5 UMOL ONCE 2 HR PRIOR TO CARCINOGEN DOSE (STUDY DURATION: 16 WK), Route [Inhibitor]: GAVAGE, Species: MOUSE, Strain/Sex: STRAIN-A/FEMALE, Target Tissue: Type of Lesion: LUNG: ADENOMA, Dose [Carcinogen]: 10 UMOL IN 0.1 ML SALINE ONCE) is listed as 100%, 45%, 55%, p<0.05.

For `O=[As]O`, the “tumour outcome (control, treated, inhibition, significance)” value (Carcinogen: NONE USED, Dose [Inhibitor]: 10 PPM IN DRINKING WATER DAILY FOR DURATION OF STUDY (STUDY DURATION: 16 MO), Route [Inhibitor]: ORAL, Species: MOUSE, Strain/Sex: C3H/FEMALE, Target Tissue: Type of Lesion: MAMMARY GLAND: ADENOCARCINOMA) is listed as 82%, 27%, 67%, not calculated and the “tumour outcome (control, treated, inhibition, significance)” value (Carcinogen: NONE USED, Dose [Inhibitor]: 80 PPM IN DRINKING WATER DAILY STARTING AT AGE 1 MO AND CONTINUING FOR LIFE (STUDY DURATION: LIFE), Route [Inhibitor]: ORAL, Species: MOUSE, Strain/Sex: C3H/FEMALE, Target Tissue: Type of Lesion: MAMMARY GLAND: TUMOR) is listed as 82%, 40%, 51%, p 0.02.

For `O=C(O)[C@@H]1CCCN1` (tested in a mixture with another compound), the “tumour outcome (control, treated, inhibition, significance)” value (Carcinogen: N-NITROSODIETHYLAMINE, 55-18-5, Dose [Inhibitor]: 0, 50 MG/KG 2/WK 1 HR PRIOR TO AND 24 HR POST CARCINOGEN TREATMENT FOR 10 WK (STUDY DURATION: 28 WK), Route [Inhibitor]: INTRAPERITONEAL, Species: RAT, Strain/Sex: BD-6/MALE, Target Tissue: Type of Lesion: LIVER: TUMOR, Dose [Carcinogen]: 80 MG/KG 1/WK FOR 10 WK) is listed as 22/23 (96%), 5/23 (22%), 77%, p<0.001, the “tumour outcome (control, treated, inhibition, significance)” value (Carcinogen: N-NITROSODIETHYLAMINE, 55-18-5, Dose [Inhibitor]: 0, 100 MG/KG 2/WK 1 HR PRIOR TO AND 24 HR POST CARCINOGEN TREATMENT FOR 10 WK (STUDY DURATION: 28 WK), Route [Inhibitor]: INTRAPERITONEAL, Species: RAT, Strain/Sex: BD-6/MALE, Target Tissue: Type of Lesion: LIVER: TUMOR, Dose [Carcinogen]: 80 MG/KG 1/WK FOR 10 WK) is listed as 22/23 (96%), 9/21 (43%), 55%, p<0.001 and the “tumour outcome (control, treated, inhibition, significance)” value (Carcinogen: N-NITROSODIETHYLAMINE, 55-18-5, Dose [Inhibitor]: 0, 100 MG/KG 2/WK 1 HR PRIOR TO AND 24 HR POST CARCINOGEN TREATMENT FOR 10 WK (STUDY DURATION: 40 WK), Route [Inhibitor]: INTRAPERITONEAL, Species: RAT, Strain/Sex: BD-6/MALE, Target Tissue: Type of Lesion: LIVER: TUMOR, Dose [Carcinogen]: 80 MG/KG 1/WK FOR 10 WK) is listed as 22/23 (96%), 8/20 (40%), 58%, not calculated.
